According to ChEMBL document CHEMBL5576074, “[1,2,4]Triazolo[1,5-a]pyrimidine derivatives: Structure-activity relationship study leading to highly selective ENPP1 inhibitors” (Bioorg Med Chem Lett, 2024):

biological target: T1, Ectonucleotide pyrophosphatase/phosphodiesterase family member 3 (Homo sapiens) (UniProt O14638); assay: Inhibition of ENPP3 (unknown origin) at 10 uM relative to control; settings: not given
T1 sequence (whole entry): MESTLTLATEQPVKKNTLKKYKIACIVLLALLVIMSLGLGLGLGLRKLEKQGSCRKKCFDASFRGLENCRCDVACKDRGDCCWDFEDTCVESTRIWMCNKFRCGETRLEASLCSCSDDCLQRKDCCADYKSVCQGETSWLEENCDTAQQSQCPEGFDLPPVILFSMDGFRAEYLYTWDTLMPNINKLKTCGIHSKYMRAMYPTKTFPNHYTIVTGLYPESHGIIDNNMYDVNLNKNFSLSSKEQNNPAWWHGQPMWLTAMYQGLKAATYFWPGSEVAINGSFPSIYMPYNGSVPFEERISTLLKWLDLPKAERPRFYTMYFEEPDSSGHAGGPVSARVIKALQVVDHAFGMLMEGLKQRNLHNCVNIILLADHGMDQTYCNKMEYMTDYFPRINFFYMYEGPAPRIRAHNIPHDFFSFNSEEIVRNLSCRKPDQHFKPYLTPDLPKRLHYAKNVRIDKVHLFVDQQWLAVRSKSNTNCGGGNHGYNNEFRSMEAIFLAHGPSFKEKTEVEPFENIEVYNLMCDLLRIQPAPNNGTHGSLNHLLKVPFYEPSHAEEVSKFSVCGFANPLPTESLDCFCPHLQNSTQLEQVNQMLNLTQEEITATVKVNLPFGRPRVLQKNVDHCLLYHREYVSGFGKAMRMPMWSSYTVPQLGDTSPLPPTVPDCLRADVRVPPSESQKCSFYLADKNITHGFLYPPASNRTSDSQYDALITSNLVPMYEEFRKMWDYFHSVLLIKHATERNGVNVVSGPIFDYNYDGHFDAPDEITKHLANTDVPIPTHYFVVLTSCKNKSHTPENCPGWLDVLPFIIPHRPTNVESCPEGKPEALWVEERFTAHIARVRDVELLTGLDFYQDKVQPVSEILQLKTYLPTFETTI

Row | inhibition [%] | SMILES
1 | 19 | Cc1nc2ncnn2c(N(C)C)c1Cc1ccccc1
2 | 16 | Cc1nc2ncnn2c(N2CCCC2)c1Cc1ccccc1
3 | 1 | Cc1nc2ncnn2c(N2CCCCC2)c1Cc1ccccc1

The next lines start with the compound.

Row | SMILES | inhibition [%]
4 | Cc1nc2ncnn2c(N2CCC(C)CC2)c1Cc1ccccc1 | 2
5 | Cc1nc2ncnn2c(N2CCCCCC2)c1Cc1ccccc1 | 5
6 | CCc1nc2ncnn2c(N(CC)Cc2ccccc2)c1Cc1ccccc1 | 2

biological target: T2, Ectonucleotide pyrophosphatase/phosphodiesterase family member 3 (Homo sapiens, UniProt O14638); assay: Inhibition of ENPP3 (unknown origin) assessed as reduction in 2'3'-cGAMP hydrolysis by AMP-Glo assay; settings: not given
T2 sequence (O14638 whole entry): T1 sequence (whole entry)

Row | SMILES | IC50 [µM]
7 | Cc1nc2ncnn2c(N(C)C)c1Cc1ccccc1 | > 50
8 | Cc1nc2ncnn2c(N(C)C)c1Cc1cccc(O)c1 | > 50
9 | Cc1nc2ncnn2c(NCc2ccc(C(=O)O)cc2)c1Cc1cccc(N)c1 | > 50

biological target: T3, Ectonucleotide pyrophosphatase/phosphodiesterase family member 1 (Homo sapiens, UniProt P22413); assay: Inhibition of ENPP1 (unknown origin); settings: not given
T3 sequence (P22413 whole entry): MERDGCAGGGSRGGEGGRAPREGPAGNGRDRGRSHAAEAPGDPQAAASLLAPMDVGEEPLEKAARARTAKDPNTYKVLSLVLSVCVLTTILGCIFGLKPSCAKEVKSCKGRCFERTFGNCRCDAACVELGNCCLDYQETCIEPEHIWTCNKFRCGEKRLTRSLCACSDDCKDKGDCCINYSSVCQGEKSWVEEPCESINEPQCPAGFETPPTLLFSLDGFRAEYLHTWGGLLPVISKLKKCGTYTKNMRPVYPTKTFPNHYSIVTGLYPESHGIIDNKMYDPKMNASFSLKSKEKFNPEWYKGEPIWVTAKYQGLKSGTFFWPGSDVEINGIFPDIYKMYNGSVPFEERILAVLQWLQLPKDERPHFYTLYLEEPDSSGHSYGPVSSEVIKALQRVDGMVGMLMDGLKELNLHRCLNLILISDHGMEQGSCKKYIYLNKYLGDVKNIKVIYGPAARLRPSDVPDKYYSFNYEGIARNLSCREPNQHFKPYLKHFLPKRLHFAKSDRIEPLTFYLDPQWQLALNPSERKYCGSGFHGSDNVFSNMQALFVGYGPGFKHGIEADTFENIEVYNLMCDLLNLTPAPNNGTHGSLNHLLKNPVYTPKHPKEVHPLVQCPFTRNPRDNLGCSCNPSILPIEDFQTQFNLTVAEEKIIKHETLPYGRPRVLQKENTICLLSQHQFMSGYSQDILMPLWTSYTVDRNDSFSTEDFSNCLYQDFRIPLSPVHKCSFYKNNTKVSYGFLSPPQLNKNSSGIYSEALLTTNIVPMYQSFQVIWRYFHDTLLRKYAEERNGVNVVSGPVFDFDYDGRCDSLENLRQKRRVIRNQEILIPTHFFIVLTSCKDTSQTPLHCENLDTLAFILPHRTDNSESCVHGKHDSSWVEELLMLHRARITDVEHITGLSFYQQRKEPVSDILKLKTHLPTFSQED

Row | SMILES | IC50 [µM]
10 | Cc1nc2ncnn2c(N(C)C)c1Cc1ccccc1 | 0.74
11 | Cc1nc2ncnn2c(N(C)C)c1Cc1cccc(O)c1 | 0.42
12 | Cc1nc2ncnn2c(NCc2ccc(C(=O)O)cc2)c1Cc1cccc(N)c1 | 1.1

test system: THP1-Dual; assay: Cytotoxicity against human THP1-Dual cells upto 50 uM; format: toxicity, cell-based; settings: not given

Row | SMILES | Activity
13 | Cc1nc2ncnn2c(N(C)C)c1Cc1cccc(O)c1 | Non-Toxic
14 | Cc1nc2ncnn2c(NCc2ccc(C(=O)O)cc2)c1Cc1cccc(N)c1 | Non-Toxic

biological target: T1, Ectonucleotide pyrophosphatase/phosphodiesterase family member 3 (Homo sapiens); assay: Inhibition of ENPP3 (unknown origin) at 50 uM relative to control; settings: not given

Row | SMILES | inhibition [%]
15 | Cc1nc2ncnn2c(N(C)C)c1Cc1ccccc1 | 6.3
16 | Cc1nc2ncnn2c(N(C)C)c1Cc1cccc(O)c1 | 24
17 | Cc1nc2ncnn2c(NCc2ccc(C(=O)O)cc2)c1Cc1cccc(N)c1 | 33

biological target: T2, Ectonucleotide pyrophosphatase/phosphodiesterase family member 3; assay: Inhibition of ENPP3 (unknown origin) assessed as reduction in ATP hydrolysis by AMP-Glo assay; settings: not given

Row | SMILES | IC50 [µM]
18 | Cc1nc2ncnn2c(N(C)C)c1Cc1ccccc1 | > 50
19 | Cc1nc2ncnn2c(N(C)C)c1Cc1cccc(O)c1 | > 50
20 | Cc1nc2ncnn2c(NCc2ccc(C(=O)O)cc2)c1Cc1cccc(N)c1 | > 50

biological target: T1, Ectonucleotide pyrophosphatase/phosphodiesterase family member 3 (Homo sapiens); assay: Inhibition of ENPP3 (unknown origin) assessed as reduction in ATP hydrolysis at 50 uM by AMP-Glo assay relative to control; settings: not given

Row | SMILES | inhibition [%]
21 | Cc1nc2ncnn2c(N(C)C)c1Cc1ccccc1 | 7.5
22 | Cc1nc2ncnn2c(N(C)C)c1Cc1cccc(O)c1 | < 1
23 | Cc1nc2ncnn2c(NCc2ccc(C(=O)O)cc2)c1Cc1cccc(N)c1 | 1.6

biological target: T2, Ectonucleotide pyrophosphatase/phosphodiesterase family member 3; assay: Inhibition of ENPP3 (unknown origin); settings: not given

Row | SMILES | IC50 [µM]
24 | Cc1nc2ncnn2c(N(C)C)c1Cc1ccccc1 | > 50
25 | Cc1nc2ncnn2c(N(C)C)c1Cc1cccc(O)c1 | > 50
26 | Cc1nc2ncnn2c(NCc2ccc(C(=O)O)cc2)c1Cc1cccc(N)c1 | > 50

biological target: T1, Ectonucleotide pyrophosphatase/phosphodiesterase family member 3 (Homo sapiens); assay: Inhibition of ENPP3 (unknown origin) assessed as reduction in 2'3'-cGAMP hydrolysis at 50 uM by AMP-Glo assay relative to control; settings: not given

Row | SMILES | inhibition [%]
27 | Cc1nc2ncnn2c(N(C)C)c1Cc1ccccc1 | < 1
28 | Cc1nc2ncnn2c(N(C)C)c1Cc1cccc(O)c1 | < 1
29 | Cc1nc2ncnn2c(NCc2ccc(C(=O)O)cc2)c1Cc1cccc(N)c1 | < 1

biological target: T4, Glycerophosphocholine cholinephosphodiesterase ENPP6 (Homo sapiens, UniProt Q6UWR7); assay: Inhibition of ENPP6 (unknown origin); settings: not given
T4 sequence (Q6UWR7 whole entry): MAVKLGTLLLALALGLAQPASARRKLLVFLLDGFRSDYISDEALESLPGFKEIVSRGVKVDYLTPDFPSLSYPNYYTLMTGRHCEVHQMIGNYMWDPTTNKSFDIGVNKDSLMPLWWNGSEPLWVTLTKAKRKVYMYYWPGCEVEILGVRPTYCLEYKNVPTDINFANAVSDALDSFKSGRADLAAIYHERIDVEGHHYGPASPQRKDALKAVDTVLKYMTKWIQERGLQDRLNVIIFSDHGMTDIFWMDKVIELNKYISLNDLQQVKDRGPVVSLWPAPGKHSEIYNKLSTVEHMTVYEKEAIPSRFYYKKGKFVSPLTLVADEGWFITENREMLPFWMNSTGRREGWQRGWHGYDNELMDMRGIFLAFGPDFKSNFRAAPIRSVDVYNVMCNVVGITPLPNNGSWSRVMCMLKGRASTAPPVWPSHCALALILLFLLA

Row | SMILES | IC50 [µM]
30 | Cc1nc2ncnn2c(N(C)C)c1Cc1ccccc1 | > 50
31 | Cc1nc2ncnn2c(N(C)C)c1Cc1cccc(O)c1 | > 50
32 | Cc1nc2ncnn2c(NCc2ccc(C(=O)O)cc2)c1Cc1cccc(N)c1 | > 50

test system: not listed separately; assay: Cytotoxicity against human HepG2-Dual cells upto 50 uM; format: toxicity, cell-based; settings: hepg2, 50 µM

Row | SMILES | Activity
33 | Cc1nc2ncnn2c(N(C)C)c1Cc1cccc(O)c1 | Non-Toxic
34 | Cc1nc2ncnn2c(NCc2ccc(C(=O)O)cc2)c1Cc1cccc(N)c1 | Non-Toxic

biological target: T5, Autotaxin (Homo sapiens, UniProt Q13822); assay: Inhibition of ENPP2 (unknown origin) at 50 uM relative to control; settings: not given

Row | SMILES | inhibition [%]
35 | Cc1nc2ncnn2c(N(C)C)c1Cc1ccccc1 | 31
36 | Cc1nc2ncnn2c(N(C)C)c1Cc1cccc(O)c1 | 31
37 | Cc1nc2ncnn2c(NCc2ccc(C(=O)O)cc2)c1Cc1cccc(N)c1 | 8.9

biological target: T5, Autotaxin; assay: Inhibition of ENPP2 (unknown origin); settings: not given

Row | SMILES | IC50 [µM]
38 | Cc1nc2ncnn2c(N(C)C)c1Cc1ccccc1 | > 50
39 | Cc1nc2ncnn2c(N(C)C)c1Cc1cccc(O)c1 | > 50
40 | Cc1nc2ncnn2c(NCc2ccc(C(=O)O)cc2)c1Cc1cccc(N)c1 | > 50

biological target: T3, Ectonucleotide pyrophosphatase/phosphodiesterase family member 1; assay: Inhibition of ENPP1 (unknown origin) assessed as reduction in ATP hydrolysis by AMP-Glo assay; settings: not given

Row | SMILES | IC50 [µM]
41 | Cc1nc2ncnn2c(N(C)C)c1Cc1cccc(O)c1 | 1.8
42 | Cc1nc2ncnn2c(NCc2ccc(C(=O)O)cc2)c1Cc1cccc(N)c1 | 8.6

biological target: T6, Glycerophosphocholine cholinephosphodiesterase ENPP6 (Homo sapiens) (UniProt Q6UWR7); assay: Inhibition of ENPP6 (unknown origin) at 50 uM relative to control; settings: not given
T6 sequence (whole entry): T4 sequence (Q6UWR7 whole entry)

Row | SMILES | inhibition [%]
43 | Cc1nc2ncnn2c(N(C)C)c1Cc1ccccc1 | < 1
44 | Cc1nc2ncnn2c(N(C)C)c1Cc1cccc(O)c1 | < 1
45 | Cc1nc2ncnn2c(NCc2ccc(C(=O)O)cc2)c1Cc1cccc(N)c1 | < 1

biological target: T3, Ectonucleotide pyrophosphatase/phosphodiesterase family member 1; assay: Inhibition of ENPP1 (unknown origin) assessed as reduction in 2'3'-cGAMP hydrolysis by AMP-Glo assay; settings: not given

Row | SMILES | IC50 [µM]
46 | Cc1nc2ncnn2c(N(C)C)c1Cc1cccc(O)c1 | 1.4
47 | Cc1nc2ncnn2c(NCc2ccc(C(=O)O)cc2)c1Cc1cccc(N)c1 | 9
